Experimental data: US9179674B2, “Macrocyclic picolinamide compounds with fungicidal activity” (DOW AGROSCIENCES LLC, priority 2013, dated 2015)
Like-named read-outs stand apart in the source and are kept apart here.

Tests used:
[1] = tested on: Mycosphaerella graminicola; Anamorph: Septoria tritici; assay: Leaf Blotch of Wheat fungicidal activity (SEPTTR); format: in vivo; conditions: Zymoseptoria tritici; for pest or weed control at 100 ppm: rate 100 ppm; for pest or weed control at 121.5 g/ha: rate 121.5 g/H
Method in brief: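 Acetone solutions diluted with nine volumes of water containing 110 ppm Triton X-100, sprayed to run-off on first-leaf wheat seedlings (Yuma), inoculated with S. tritici before or after treatment. Plants held in dew chambers, then in a 20 °C greenhouse. Disease severity (0–100%) scored when untreated plants fully symptomatic; % control relative to untreated.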

[2] = tested on: Puccinia triticina; assay: Wheat Brown Rust fungicidal activity (PUCCRT); format: in vivo; conditions: Puccinia triticina; for pest or weed control at 100 ppm: rate 100 ppm; for pest or weed control at 121.5 g/ha: rate 121.5 g/H
Method in brief: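 Yuma wheat seedlings at first-leaf stage sprayed to run-off (acetone solution in water with 110 ppm Triton X-100) or track-sprayed as EC with 0.1% Trycol 5941; inoculated with P. triticina spores before or after treatment. Overnight dark dew at 22° C., then greenhouse 24° C.; disease severity 0–100% gives percent control vs untreated.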

[3] = 24 h, 1 Day Protectant, read-out: Disease control SEPTTR 1DP
[4] = 72 h, 3 Day Curative, read-out: Disease control SEPTTR 3DC
[5] = 24 h, 1 Day Protectant, read-out: Disease control PUCCRT 1DP
[6] = 72 h, 3 Day Curative, read-out: Disease control PUCCRT 3DC

Structure (SMILES)	melting point [°C]	pest or weed control at 100 ppm [1, 3] [%]	pest or weed control at 100 ppm [1, 4] [%]	pest or weed control at 100 ppm [2, 5] [%]	pest or weed control at 100 ppm [2, 6] [%]	pest or weed control at 121.5 g/ha [2, 5] [%]	pest or weed control at 121.5 g/ha [1, 3] [%]	pest or weed control at 121.5 g/ha [1, 4] [%]	pest or weed control at 121.5 g/ha [2, 6] [%]
Cc1ccc(C[C@H]2COC[C@H](N)C(=O)O[C@@H](C)[C@@H]2OCC(C)C)cc1.Cl	81 to 84								
COc1ccnc(C(=O)N[C@H]2COC[C@H](CCc3ccccc3)[C@@H](OC3CCCC3)[C@H](C)OC2=O)c1O [Compound F1]	51 to 58	80 to 100	0 to 80	80 to 100	80 to 100				
COc1ccnc(C(=O)N[C@H]2COC[C@H](CCc3ccccc3)[C@@H](OCCCC(F)(F)F)[C@H](C)OC2=O)c1O [Compound F2]	78 to 81	80 to 100	80 to 100	80 to 100	0 to 80				
CCCCCO[C@@H]1[C@@H](CCc2ccccc2)COC[C@H](NC(=O)c2nccc(OC)c2O)C(=O)O[C@H]1C [Compound F3]	96 to 98	80 to 100	80 to 100	80 to 100	80 to 100				
COc1ccnc(C(=O)N[C@H]2COC[C@H](CCc3ccccc3)[C@@H](OCC(C)C)[C@H](C)OC2=O)c1O [Compound F4]	117 to 120	80 to 100	80 to 100	80 to 100	80 to 100				
COc1ccnc(C(=O)N[C@H]2COC[C@H](Cc3cccc4ccccc34)[C@@H](OC(=O)C(C)C)[C@H](C)OC2=O)c1O [Compound F5, (3S,6S,7R,8S)-3-(3-hydroxy-4-methoxypicolin-amido)-6-methyl-8-(naphthalen-1-ylmethyl)-4-oxo-1,5-dioxonan-7-yl isobutyrate]	139 to 142	80 to 100	0 to 80	0 to 80	0 to 80				
COc1ccnc(C(=O)N[C@H]2COC[C@H](Cc3cccc4ccccc34)[C@@H](OCCCC(F)(F)F)[C@H](C)OC2=O)c1O [Compound F6]	118 to 122	80 to 100	0 to 80	0 to 80					
CCCCCO[C@@H]1[C@@H](Cc2cccc3ccccc23)COC[C@H](NC(=O)c2nccc(OC)c2O)C(=O)O[C@H]1C [Compound F7]	116 to 120	80 to 100	0 to 80	80 to 100	0 to 80				
COc1ccnc(C(=O)N[C@H]2COC[C@H](Cc3cccc4ccccc34)[C@@H](Oc3ccc(C)cc3)[C@H](C)OC2=O)c1O [Compound F8]	94 to 98	80 to 100	0 to 80	80 to 100	0 to 80				
COc1ccnc(C(=O)N[C@H]2COC[C@H](Cc3cccc4ccccc34)[C@@H](OC3CCCC3)[C@H](C)OC2=O)c1O [Compound F9]	78 to 85	80 to 100	80 to 100	80 to 100					
COc1ccnc(C(=O)N[C@H]2COC[C@H](Cc3cccc4ccccc34)[C@@H](OCC(C)C)[C@H](C)OC2=O)c1O [Compound F10]	78 to 80	80 to 100	0 to 80	80 to 100					
CCCCCO[C@@H]1[C@@H](Cc2ccc(C)cc2)COC[C@H](NC(=O)c2nccc(OC)c2O)C(=O)O[C@H]1C [Compound F11]	97 to 99	80 to 100	80 to 100	80 to 100	0 to 80				
COc1ccnc(C(=O)N[C@H]2COC[C@H](Cc3ccc(C)cc3)[C@@H](OC(=O)C(C)C)[C@H](C)OC2=O)c1O [Compound F12]	67 to 72	80 to 100	80 to 100	80 to 100	80 to 100				
CCOCC(=O)OCOc1c(OC)ccnc1C(=O)N[C@H]1COC[C@H](CC2CCCC2)[C@@H](OC(=O)C(C)C)[C@H](C)OC1=O [Compound F121]		80 to 100	80 to 100	80 to 100	80 to 100	80 to 100	80 to 100	80 to 100	80 to 100
CC(C)C(=O)O[C@@H]1[C@@H](Cc2cccc3ccccc23)COC[C@H](N(C(=O)OC(C)(C)C)C(=O)OC(C)(C)C)C(=O)O[C@H]1C [Compound F128, [(3S,6S,7R,8S)-3-[bis(tert-butoxycarbonyl)amino]-6-methyl-8-(1-naphthylmethyl)-4-oxo-1,5-dioxonan-7-yl]2-methylpropanoate]	130 to 132								
C[C@@H]1OC(=O)[C@@H](N(C(=O)OC(C)(C)C)C(=O)OC(C)(C)C)COC[C@H](Cc2cccc3ccccc23)[C@H]1OC1CCCC1 [Compound F132, tert-butyl N-tert-butoxycarbonyl-N-[(3S,7S,8R,9S)-8-(cyclopentoxy)-9-methyl-7-(1-naphthylmethyl)-2-oxo-1,5-dioxonan-3-yl]carbamate]	49 to 55								

The next lines start with results.

melting point [°C]	Structure (SMILES)	pest or weed control at 100 ppm [1, 3] [%]	pest or weed control at 100 ppm [1, 4] [%]	pest or weed control at 100 ppm [2, 5] [%]	pest or weed control at 100 ppm [2, 6] [%]	pest or weed control at 121.5 g/ha [2, 5] [%]	pest or weed control at 121.5 g/ha [1, 3] [%]	pest or weed control at 121.5 g/ha [1, 4] [%]	pest or weed control at 121.5 g/ha [2, 6] [%]
68 to 73	COc1ccnc(C(=O)N[C@H]2COC[C@H](Cc3ccc(F)cc3)[C@@H](OC(=O)C3CC3)[C@H](C)OC2=O)c1O [Compound F13]	80 to 100	80 to 100	80 to 100	80 to 100				
66 to 71	COc1ccnc(C(=O)N[C@H]2COC[C@H](Cc3ccc(F)cc3)[C@@H](OC(=O)C(C)C)[C@H](C)OC2=O)c1O [Compound F14]	80 to 100	80 to 100	80 to 100	80 to 100				
79 to 82	COc1ccnc(C(=O)N[C@H]2COC[C@H](Cc3ccc(Cl)cc3Cl)[C@@H](OC(=O)C(C)C)[C@H](C)OC2=O)c1O [Compound F41]	80 to 100	80 to 100	80 to 100					
60 to 64	COc1ccnc(C(=O)N[C@H]2COC[C@H](Cc3ccc(Cl)cc3Cl)[C@@H](OCC(C)C)[C@H](C)OC2=O)c1O [Compound F42]	80 to 100	80 to 100	80 to 100	80 to 100				
50 to 54	CCCCCO[C@@H]1[C@@H](Cc2ccc(Cl)cc2Cl)COC[C@H](NC(=O)c2nccc(OC)c2O)C(=O)O[C@H]1C [Compound F43]	80 to 100	0 to 80	0 to 80					
81 to 85	COc1ccnc(C(=O)N[C@H]2COC[C@H](Cc3ccc(Cl)cc3Cl)[C@@H](Oc3ccc(C)cc3)[C@H](C)OC2=O)c1O [Compound F44]			80 to 100					
55 to 59	COc1ccnc(C(=O)N[C@H]2COC[C@H](CC3CCCC3)[C@@H](OC(=O)C(C)C)[C@H](C)OC2=O)c1O [Compound F45]	80 to 100	80 to 100	80 to 100	0 to 80				
132 to 134	COc1ccnc(C(=O)N[C@H]2COC[C@H](CC3CCCC3)[C@@H](OCC(C)C)[C@H](C)OC2=O)c1O [Compound F46]	80 to 100	80 to 100	80 to 100	80 to 100				
109 to 111	CCCCCO[C@@H]1[C@@H](CC2CCCC2)COC[C@H](NC(=O)c2nccc(OC)c2O)C(=O)O[C@H]1C [Compound F47]	80 to 100	80 to 100	80 to 100	80 to 100				
70 to 74	COc1ccnc(C(=O)N[C@H]2COC[C@H](Cc3ccc(Cl)cc3Cl)[C@@H](Oc3ccc(C)cc3)[C@H](C)OC2=O)c1OCOC(C)=O [Compound F113]					80 to 100			
57 to 63	CC(C)CO[C@@H]1[C@@H](Cc2cccc3ccccc23)COC[C@H](N(C(=O)OC(C)(C)C)C(=O)OC(C)(C)C)C(=O)O[C@H]1C [Compound F133]								
100 to 103	CCCCCO[C@@H]1[C@@H](Cc2ccc(C)cc2)COC[C@H](N(C(=O)OC(C)(C)C)C(=O)OC(C)(C)C)C(=O)O[C@H]1C [Compound F134]								
131 to 133	C[C@@H]1OC(=O)[C@@H](N(C(=O)OC(C)(C)C)C(=O)OC(C)(C)C)COC[C@H](Cc2ccc(F)cc2)[C@H]1OC(=O)C1CC1 [Compound F136]								
